A short description of this series: Stability of pure lycopene isomers in n-hexane during storage at room temperature. It is filed as physicochemical. Particulars: storage in n-hexane at room temperature in the absence of light. As for the experimental part:
Pure 5-Z, 9-Z, 13-Z and all-E lycopene were isolated from isomerised tomato oleoresin (submitted to 1 hour heating), by collecting the fractions containing the corresponding peaks after HPLC separation (see below the experimental conditions). Peaks were collected during two consecutive HPLC runs and the corresponding fractions were pooled.
Lycopene isomer profiles were determined by normal phase HPLC according to the method described by Schierle et al. (Schierle, J., Bretzel, W., Buhler, I., Faccin, N., Hess, D., Steiner, K., Schuep, W. (1997). Food. Chem. 59: 459). Samples of isomerized oleoresins were dissolved in n-hexane containing 50 ppm BHT and spun at maximum speed in an Eppendorf Lab centrifuge. The resulting supernatants were immediately analyzed by HPLC. The HPLC system used was a 1100 series Hewlett-Packard model equipped with an ultraviolet-visible photodiode array detector. Data were simultaneously acquired at 470 nm, 464 nm, 346 nm and 294 nm. […]
Amounts of lycopene isomers were calculated based on surface areas of the HPLC peaks using the same extinction coefficient as the all-E lycopene. […]
Stability of lycopene isomers was investigated both in n-hexane and in a tomato oleoresin isomerized by 4 hour heating in ethyl acetate. […] Total lycopene concentration and lycopene isomer profiles were measured at various time intervals during the storage. […]

In the case of `CC(C)=CCC/C(C)=C/C=C/C(C)=C/C=C/C(C)=C\C=C\C=C(C)\C=C\C=C(C)\C=C\C=C(/C)CCC=C(C)C` [13-Z lycopene], the “relative stability of the isomer” value is reported as “less stable isomer”.

These data come from patent US8568806B2, “Stable and bioavailable compositions of isomers of lycopene for skin and hair” (Indena, S.p.A., priority 2006, dated 2013).
